We go through four compounds from ChEMBL document CHEMBL1938312, “Design and combinatorial synthesis of a novel kinase-focused library using click chemistry-based fragment assembly” (Bioorg Med Chem Lett, 2012).

For experiment [1], the target named is Death-associated protein kinase 1 (Homo sapiens) (UniProt P53355). Put plainly: Inhibition of DAPK1 at 10 uM by colorimetric analysis.
Experiment [2] has as its target T1, Interleukin-1 receptor-associated kinase 4 (Homo sapiens) (UniProt Q9NWZ3).
T1 sequence (whole entry): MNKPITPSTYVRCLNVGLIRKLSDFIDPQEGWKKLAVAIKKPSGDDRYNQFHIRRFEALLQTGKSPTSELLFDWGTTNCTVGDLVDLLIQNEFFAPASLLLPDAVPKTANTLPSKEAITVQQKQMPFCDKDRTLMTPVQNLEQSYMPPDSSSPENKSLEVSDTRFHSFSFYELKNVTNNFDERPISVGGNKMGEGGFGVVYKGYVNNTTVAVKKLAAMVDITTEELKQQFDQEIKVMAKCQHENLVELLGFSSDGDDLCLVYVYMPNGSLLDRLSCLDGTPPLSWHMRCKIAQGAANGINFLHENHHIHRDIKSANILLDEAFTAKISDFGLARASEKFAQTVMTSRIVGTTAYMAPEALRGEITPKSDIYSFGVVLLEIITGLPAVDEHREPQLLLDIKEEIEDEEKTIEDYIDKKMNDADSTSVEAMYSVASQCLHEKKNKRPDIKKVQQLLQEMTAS
Put plainly: Inhibition of IRAK4 at 10 uM by colorimetric analysis.

The target in experiment [3] is Ribosomal protein S6 kinase beta-1 (Homo sapiens) (UniProt P23443). The experiment can be described thus: Inhibition of p70S6K at 10 uM by colorimetric analysis.
Ribosomal protein S6 kinase beta-1 (Homo sapiens), sequence (P23443 whole entry, looked up): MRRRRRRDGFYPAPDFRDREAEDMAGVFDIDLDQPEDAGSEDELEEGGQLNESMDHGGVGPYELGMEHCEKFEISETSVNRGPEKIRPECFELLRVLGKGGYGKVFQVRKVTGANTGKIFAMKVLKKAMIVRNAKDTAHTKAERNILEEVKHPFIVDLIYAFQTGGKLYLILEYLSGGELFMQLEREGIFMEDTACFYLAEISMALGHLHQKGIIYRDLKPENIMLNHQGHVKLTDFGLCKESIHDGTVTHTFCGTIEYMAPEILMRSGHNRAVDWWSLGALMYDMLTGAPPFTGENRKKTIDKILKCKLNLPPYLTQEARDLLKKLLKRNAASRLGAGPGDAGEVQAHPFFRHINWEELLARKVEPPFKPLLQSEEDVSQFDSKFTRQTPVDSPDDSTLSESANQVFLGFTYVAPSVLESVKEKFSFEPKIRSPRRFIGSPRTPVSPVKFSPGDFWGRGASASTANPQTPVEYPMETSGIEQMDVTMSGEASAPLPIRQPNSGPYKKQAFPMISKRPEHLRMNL
The target in experiment [4] is Ephrin type-A receptor 2 (Homo sapiens) (UniProt P29317). The experiment can be described thus: Inhibition of EPHA2 at 10 uM by colorimetric analysis.
Ephrin type-A receptor 2 (Homo sapiens), sequence (P29317 whole entry): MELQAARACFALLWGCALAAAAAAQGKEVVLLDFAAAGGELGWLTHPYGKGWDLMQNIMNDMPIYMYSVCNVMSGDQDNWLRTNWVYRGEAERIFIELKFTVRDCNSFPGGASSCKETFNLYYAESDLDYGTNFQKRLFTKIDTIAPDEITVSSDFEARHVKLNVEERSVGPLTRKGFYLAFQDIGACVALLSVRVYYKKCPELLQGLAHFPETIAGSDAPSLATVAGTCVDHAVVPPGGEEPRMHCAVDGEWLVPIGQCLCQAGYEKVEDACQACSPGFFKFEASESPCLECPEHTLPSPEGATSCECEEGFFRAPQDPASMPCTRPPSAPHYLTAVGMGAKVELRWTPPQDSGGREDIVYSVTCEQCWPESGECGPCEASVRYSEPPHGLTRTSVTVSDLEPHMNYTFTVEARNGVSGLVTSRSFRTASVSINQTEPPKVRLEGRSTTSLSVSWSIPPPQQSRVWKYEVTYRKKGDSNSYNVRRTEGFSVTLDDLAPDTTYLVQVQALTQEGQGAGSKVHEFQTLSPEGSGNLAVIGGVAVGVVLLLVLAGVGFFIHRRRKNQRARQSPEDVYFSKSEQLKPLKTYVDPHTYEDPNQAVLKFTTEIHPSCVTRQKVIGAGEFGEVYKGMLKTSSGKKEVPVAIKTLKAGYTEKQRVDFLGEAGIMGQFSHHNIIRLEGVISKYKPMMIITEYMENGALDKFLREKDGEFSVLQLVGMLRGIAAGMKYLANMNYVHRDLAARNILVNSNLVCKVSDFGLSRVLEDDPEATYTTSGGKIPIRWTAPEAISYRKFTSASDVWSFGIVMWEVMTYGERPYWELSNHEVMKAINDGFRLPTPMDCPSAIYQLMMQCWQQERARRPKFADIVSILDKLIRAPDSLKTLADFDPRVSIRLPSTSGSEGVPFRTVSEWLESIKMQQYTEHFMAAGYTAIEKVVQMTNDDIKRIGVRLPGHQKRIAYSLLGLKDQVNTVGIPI
In experiment [5] the target is Glycogen synthase kinase-3 beta (Homo sapiens, UniProt P49841). Put plainly: Inhibition of GSK3-beta by colorimetric analysis.
Glycogen synthase kinase-3 beta, sequence (P49841 whole entry): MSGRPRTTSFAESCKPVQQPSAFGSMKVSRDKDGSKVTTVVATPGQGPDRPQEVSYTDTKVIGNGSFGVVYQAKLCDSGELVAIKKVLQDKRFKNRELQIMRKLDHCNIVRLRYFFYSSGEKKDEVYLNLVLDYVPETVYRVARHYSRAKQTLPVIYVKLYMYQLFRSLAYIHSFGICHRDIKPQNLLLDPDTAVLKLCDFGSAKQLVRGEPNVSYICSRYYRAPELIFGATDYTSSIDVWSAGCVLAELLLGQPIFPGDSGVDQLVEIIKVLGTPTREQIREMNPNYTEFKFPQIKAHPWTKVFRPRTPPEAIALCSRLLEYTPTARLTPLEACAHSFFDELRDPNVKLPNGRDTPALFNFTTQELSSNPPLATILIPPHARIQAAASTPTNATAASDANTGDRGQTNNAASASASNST

The source made the active and inactive calls. The rule behind the calls is not given here.

Death-associated protein kinase 1 (Homo sapiens), sequence (P53355 whole entry, looked up): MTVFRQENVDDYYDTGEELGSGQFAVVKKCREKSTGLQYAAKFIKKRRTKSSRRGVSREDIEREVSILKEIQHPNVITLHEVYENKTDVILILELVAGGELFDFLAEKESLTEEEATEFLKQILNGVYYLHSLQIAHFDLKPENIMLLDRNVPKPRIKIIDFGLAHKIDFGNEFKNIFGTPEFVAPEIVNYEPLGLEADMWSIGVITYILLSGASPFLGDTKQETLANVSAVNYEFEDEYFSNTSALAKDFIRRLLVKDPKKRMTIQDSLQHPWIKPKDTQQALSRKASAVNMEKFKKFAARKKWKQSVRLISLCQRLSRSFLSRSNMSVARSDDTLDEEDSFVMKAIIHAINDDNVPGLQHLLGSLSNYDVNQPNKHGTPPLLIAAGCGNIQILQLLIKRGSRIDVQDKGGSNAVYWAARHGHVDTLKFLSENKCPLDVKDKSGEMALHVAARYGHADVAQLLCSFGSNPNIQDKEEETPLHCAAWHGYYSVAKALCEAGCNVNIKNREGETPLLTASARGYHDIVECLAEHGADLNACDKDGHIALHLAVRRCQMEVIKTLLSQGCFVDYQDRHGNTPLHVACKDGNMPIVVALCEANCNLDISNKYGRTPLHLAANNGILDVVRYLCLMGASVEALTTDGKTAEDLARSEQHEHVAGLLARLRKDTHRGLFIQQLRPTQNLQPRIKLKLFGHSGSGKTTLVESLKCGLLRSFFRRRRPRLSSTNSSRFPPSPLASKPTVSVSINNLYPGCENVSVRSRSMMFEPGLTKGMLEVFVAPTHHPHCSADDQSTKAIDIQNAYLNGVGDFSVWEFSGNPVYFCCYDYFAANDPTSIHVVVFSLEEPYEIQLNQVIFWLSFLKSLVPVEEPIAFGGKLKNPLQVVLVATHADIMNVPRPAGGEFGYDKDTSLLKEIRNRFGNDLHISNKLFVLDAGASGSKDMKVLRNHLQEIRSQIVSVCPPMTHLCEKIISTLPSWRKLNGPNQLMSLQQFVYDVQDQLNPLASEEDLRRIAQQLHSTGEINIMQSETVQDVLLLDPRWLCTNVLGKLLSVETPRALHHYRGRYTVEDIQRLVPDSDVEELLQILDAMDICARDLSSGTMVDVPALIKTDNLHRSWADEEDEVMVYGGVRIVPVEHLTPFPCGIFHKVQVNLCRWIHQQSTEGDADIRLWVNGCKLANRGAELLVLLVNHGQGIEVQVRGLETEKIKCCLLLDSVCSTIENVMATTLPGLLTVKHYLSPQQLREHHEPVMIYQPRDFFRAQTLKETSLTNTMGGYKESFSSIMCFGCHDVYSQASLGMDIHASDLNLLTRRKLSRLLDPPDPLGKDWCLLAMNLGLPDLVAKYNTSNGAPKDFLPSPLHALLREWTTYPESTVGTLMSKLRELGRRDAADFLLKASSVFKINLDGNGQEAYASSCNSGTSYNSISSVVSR

Regarding `Clc1ccc(-n2nncc2-c2ccncc2)cc1`, the inhibition entry in experiment [1], in experiment [2] and in experiment [3] was “Active” in each case. For the same compound, in experiment [4], the inhibition result is “inactive”.
As for `Clc1ccc(-n2cc(-c3ccncc3)nn2)cc1`, the inhibition entry in experiment [1], in experiment [2] and in experiment [3] was “Active” in each case. This compound also returned a 50% inhibitory concentration (IC50) in experiment [5] of 1100 nM. For the same compound, in experiment [4], the inhibition entry was “inactive”.
With `Clc1cccc(-n2cc(-c3ccncc3)nn2)c1`, the inhibition entry in experiment [1], in experiment [2] and in experiment [3] was “Active” throughout. In experiment [5], this compound showed a 50% inhibitory concentration (IC50) of 1800 nM. Further, in experiment [4], the inhibition result is “inactive”.
Turning to `Clc1cccc(-n2nncc2-c2ccncc2)c1`, the inhibition result in experiment [1], in experiment [2] and in experiment [3] was “Active” throughout. For the same compound, the inhibition result in experiment [4] is “inactive”.

For orientation: IC50 means the midpoint of a concentration-inhibition curve.
